Laboratory results reported in patent US9328099B2, “Cyanomethylpyrazole carboxamides as janus kinase inhibitors” (Merck Sharp & Dohme Corp., priority 2011, dated 2016).
pIC50: −log10 of the molar value.

Key:
[1] = biological target: JAK1 (Homo sapiens (Human), UniProt P23458); assay: Jak Biochemical HTRF Assay, JAK1; settings: HTRF biochemical assay, GST-tagged catalytic domain; top concentration tested […]; read-out: JAK1 IC50
Excerpt: (§1) Jak Biochemical HTRF Assay Protocol
(§2) Subsequent reagent additions employed an Agilent Bravo.

[2] = biological target: JAK2 (Homo sapiens (Human), UniProt O60674); assay: Jak Biochemical HTRF Assay, JAK2; settings: HTRF biochemical assay, GST-tagged catalytic domain; top concentration tested […]
Sequence of JAK2 (O60674 849-1124): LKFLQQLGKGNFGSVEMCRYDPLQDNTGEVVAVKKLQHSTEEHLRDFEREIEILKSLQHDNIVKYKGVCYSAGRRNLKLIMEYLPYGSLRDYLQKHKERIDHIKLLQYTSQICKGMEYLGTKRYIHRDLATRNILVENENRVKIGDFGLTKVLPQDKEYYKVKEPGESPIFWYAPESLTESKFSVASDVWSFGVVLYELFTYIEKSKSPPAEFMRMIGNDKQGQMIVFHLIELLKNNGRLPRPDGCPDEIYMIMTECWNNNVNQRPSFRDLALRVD
Excerpt: as §1, §2

Sequence of JAK1 (P23458 875-1153): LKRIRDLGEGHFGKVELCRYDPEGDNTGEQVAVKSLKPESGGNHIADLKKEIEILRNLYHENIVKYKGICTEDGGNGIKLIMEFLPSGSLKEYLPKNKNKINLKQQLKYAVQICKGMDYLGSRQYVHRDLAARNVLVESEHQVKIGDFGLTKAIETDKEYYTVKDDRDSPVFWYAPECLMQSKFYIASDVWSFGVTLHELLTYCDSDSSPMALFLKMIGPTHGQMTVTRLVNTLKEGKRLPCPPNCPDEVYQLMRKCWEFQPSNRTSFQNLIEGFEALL

Row | pIC50 [1] | pIC50 [2] | Structure (SMILES)
1 | 7.51 | 6.17 | COc1ccccc1COC(=O)N1CC(CC#N)(n2cc(C(N)=O)c(Nc3ccccc3)n2)C1 [Example 30-69, 2-methoxybenzyl 3-[4-carbamoyl-3-(phenylamino)-1H-pyrazol-1-yl]-3-(cyanomethyl)azetidine-1-carboxylate]
2 | 7.68 | 6.37 | COc1cccc(COC(=O)N2CC(CC#N)(n3cc(C(N)=O)c(Nc4ccccc4)n3)C2)c1 [Example 30-70, 3-methoxybenzyl 3-[4-carbarnoyl-3-(phenylamino)-1H-pyrazol-1-yl]-3-(cyanomethyl)azetidine-1-carboxylate]
3 | 6.70 | 5.83 | CN(C)CCCOC(=O)N1CC(CC#N)(n2cc(C(N)=O)c(Nc3ccccc3)n2)C1 [Example 30-71, 3-(dimethylamino)propyl 3-[4-carbamoyl-3-(phenylamino)-1H-pyrazol-1-yl]-3-(cyanomethyl)azetidine-1-carboxylate]
4 | 6.89 | 5.83 | CN1CCC(COC(=O)N2CC(CC#N)(n3cc(C(N)=O)c(Nc4ccccc4)n3)C2)CC1 [Example 30-73, (1-methylpiperidin-4-yl)methyl-3-[4-carbamoyl-3-(phenylamino)-1H-pyrazol-1-yl]-3-(cyanomethyl)azetidine-1-carboxylate]
5 | 7.66 | 6.66 | CS(=O)(=O)c1ccc(Nc2nn(C3(CC#N)CN(C(=O)OC4CCOC4)C3)cc2C(N)=O)cc1 (stereo not shown) [Example 30-75, tetrahydrofuran-3-yl 3-(4-carbamoyl-3-{[4-(methylsulfonyl)phenyl]amino)-1H-pyrazol-1-yl)-3-(cyanomethyl)azetidine-1-carboxylate]
6 | 7.13 | 6.55 | CS(=O)(=O)c1ccc(Nc2nn(C3(CC#N)CN(C(=O)OC4CCOCC4)C3)cc2C(N)=O)cc1 [Example 30-76, tetrahydro-2H-pyran-4-yl 3-(4-carbamoyl-3-{[4-(methylsulfonyl)phenyl]amino}-1H-pyrazol-1-yl)-3-(cyanomethyl)azetidine-1-carboxylate]
7 | 9.70 | 8.05 | C[C@H](OC(=O)N1CCC(CC#N)(n2cc(C(N)=O)c(Nc3ccnc(F)c3)n2)CC1)C1CC1 [Example 30-77, (1S)-1-cyclopropylethyl 4-{4-carbamoyl-3-[(2-fluoropyridin-4-yl)amino]-1H-pyrazol-1-yl}-4-(cyanomethyl)piperidine-1-carboxylate]
8 | 9.52 | 7.92 | C[C@@H](OC(=O)N1CCC(CC#N)(n2cc(C(N)=O)c(Nc3ccnc(F)c3)n2)CC1)C1CC1 [Example 30-78, (1R)-1-cyclopropylethyl 4-{4-carbamoyl-3-[(2-fluoropyridin-4-yl)amino]-1H-pyrazol-1-yl}-4-(cyanomethyl)piperidine-1-carboxylate]
9 | 9.40 | 8.10 | CC(CO)OC(=O)N1CCC(CC#N)(n2cc(C(N)=O)c(Nc3ccc(F)cc3)n2)CC1 (stereo not shown) [Example 31, 2-Hydroxy-1-methylethyl 4-{4-carbamoyl-3-[(4-fluorophenyl)amino]-1H-pyrazol-1-yl}-4-(cyanomethyl)piperidine-1-carboxylate]
10 | 7.03 | 6.29 | CC(=O)N1CC(CC#N)(n2cc(C(N)=O)c(Nc3ccccc3)n2)C1 [Example 32, 1-[1-Acetyl-3-(cyanomethyl)azetidin-3-yl]-3-(phenylamino)-1H-pyrazole-4-carboxamide]
11 | 8.70 | 7.59 | CCC(=O)N1CCC(CC#N)(n2cc(C(N)=O)c(Nc3ccccc3)n2)CC1 [Example 33-1, 1-[4-(Cyanomethyl)-1-propanoylpiperidin-4-yl]-3-(phenylamino)-1H-pyrazole-4-carboxamide]
12 | 8.70 | 7.19 | C/C=C/C(=O)N1CCC(CC#N)(n2cc(C(N)=O)c(Nc3ccccc3)n2)CC1 [Example 33-2, 1-{1-[(2E)-but-2-enoyl]-4-(cyanomethyl)piperidin-4-yl}-3-(phenylamino)-1H-pyrazole-4-carboxamide]
13 | 9.00 | 7.80 | N#CCC1(n2cc(C(N)=O)c(Nc3ccccc3)n2)CCN(C(=O)C2CC2)CC1 [Example 34-1, 1-[4-(Cyanomethyl)-1-(cyclopropylcarbonyl)piperidin-4-yl]-3-(phenylamino)-1H-pyrazole-4-carboxamide]
14 | 8.30 | 7.03 | COCC(=O)N1CCC(CC#N)(n2cc(C(N)=O)c(Nc3ccccc3)n2)CC1 [Example 34-2, 1-[4-(cyanomethyl)-1-(methoxyacetyl)piperidin-4-yl]-3-(phenylamino)-1H-pyrazole-4-carboxamide]
15 | 7.89 | 7.04 | CC(C)(C)C(=O)N1CCC(CC#N)(n2cc(C(N)=O)c(Nc3ccccc3)n2)CC1 [Example 34-3, 1-[4-(cyanomethyl)-1-(2,2-dimethylpropanoyl)piperidin-4-yl]-3-(phenylamino)-1H-pyrazole-4-carboxamide]
16 | 7.92 | 7.15 | CCCCC(=O)N1CCC(CC#N)(n2cc(C(N)=O)c(Nc3ccccc3)n2)CC1 [Example 34-4, 1-[4-(cyanomethyl)-1-pentanoylpiperidin-4-yl]-3-(phenylamino)-1H-pyrazole-4-carboxamide]
17 | 7.89 | 6.50 | CN(C)CC(=O)N1CCC(CC#N)(n2cc(C(N)=O)c(Nc3ccccc3)n2)CC1 [Example 34-5, 1-[4-(cyanomethyl)-1-(N,N-dimethylglycyl)piperidin-4-yl]-3-(phenylamino)-1H-pyrazole-4-carboxamide]
18 | 8.30 | 6.97 | N#CCC1(n2cc(C(N)=O)c(Nc3ccccc3)n2)CCN(C(=O)C2CCCO2)CC1 (stereo not shown) [Example 34-6, 1-[4-(cyanomethyl)-1-(tetrahydrofuran-2-ylcarbonyl)piperidin-4-yl]-3-(phenylamino)-1H-pyrazole-4-carboxamide]
19 | 8.22 | 7.03 | N#CCC1(n2cc(C(N)=O)c(Nc3ccccc3)n2)CCN(C(=O)c2ccccc2)CC1 [Example 34-7, 1-[4-(cyanomethyl)-1-(phenylcarbonyl)piperidin-4-yl]-3-(phenylamino)-1H-pyrazole-4-carboxamide]
20 | 7.85 | 6.72 | N#CCC1(n2cc(C(N)=O)c(Nc3ccccc3)n2)CCN(C(=O)c2cccnc2)CC1 [Example 34-8, 1-[4-(cyanomethyl)-1-(pyridin-3-ylcarbonyl)piperidin-4-yl]-3-(phenylamino)-1H-pyrazole-4-carboxamide]
21 | 7.70 | 6.50 | N#CCC1(n2cc(C(N)=O)c(Nc3ccccc3)n2)CCN(C(=O)c2ccncc2)CC1 [Example 34-10, 1-[4-(cyanomethyl)-1-(pyridin-4-ylcarbonyl)piperidin-4-yl]-3-(phenylamino)-1H-pyrazole-4-carboxamide]
22 | 7.82 | 6.71 | Cc1cc(C(=O)N2CCC(CC#N)(n3cc(C(N)=O)c(Nc4ccccc4)n3)CC2)no1 [Example 34-12, 1-{4-(cyanomethyl)-1-[(5-methylisoxazol-3-yl)carbonyl]piperidin-4-yl}-3-(phenylamino)-1H-pyrazole-4-carboxamide]
23 | 8.70 | 7.36 | N#CCC1(n2cc(C(N)=O)c(Nc3ccccc3)n2)CCN(C(=O)C2CCCCC2)CC1 [Example 34-13, 1-[4-(cyanomethyl)-1-(cyclohexylcarbonyl)piperidin-4-yl]-3-(phenylamino)-1H-pyrazole-4-carboxamide]
